According to the supplement of paper PMC13207355:

Tests used:
Conditions in all cases: exposure time: 72 h
E57 [1] = patient-derived glioblastoma stem cells of mesenchymal subtype; test: surviving fraction (nuclei count normalised to DMSO); higher = more cells surviving (less toxic)
E28 [2] = patient-derived glioblastoma stem cells of classical subtype; test: as above
E31 [3] = patient-derived glioblastoma stem cells of proneural subtype; test: as above
FT3469 [4] = normal neural stem cell line; test: as above
E21 [5] = patient-derived glioblastoma stem cells of mesenchymal subtype; test: as above
E34 [6] = patient-derived glioblastoma stem cells of proneural subtype; test: as above
E13 [7] = patient-derived glioblastoma stem cells of classical subtype; test: as above
E57 [8] = test: phenotypic distance (Euclidean, principal components) from DMSO controls (arbitrary units); higher = stronger morphological change
E28 [9] = test: as above
E31 [10] = test: as above
FT3469 [11] = test: as above
E21 [12] = test: as above
E34 [13] = test: as above
E13 [14] = test: as above
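Throughout, for phenotypic distance (Euclidean, principal components) from DMSO controls: cell Painting imaging in 384-well plates, CellProfiler features reduced to at least 20 principal components, Euclidean distance versus same-plate DMSO vehicle wells (0.1% v/v), median over six images per well.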
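Throughout, for surviving fraction (nuclei count normalised to DMSO): nuclei counted by high-content imaging of Hoechst-stained cells in laminin-coated 384-well plates, relative to 0.1% DMSO vehicle wells, with staurosporine as cell-death control.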

CC(=O)OC[C@H]1O[C@@H]([S-])[C@H](OC(C)=O)[C@@H](OC(C)=O)[C@@H]1OC(C)=O.CCP(CC)CC.[Au+] [Auranofin]
Conditions	phenotypic distance	surviving fraction
E13 [7], 4.1 nM	–	0.841
E13 [7], 12.3 nM	–	1.05
E13 [7], 37 nM	–	1.04
E13 [7], 111.1 nM	–	1.09
E13 [7], 333.3 nM	–	0.968
E13 [7], 1000 nM	–	0.851
E13 [7], 3000 nM	–	0.227
E13 [14], 4.1 nM	0.698	–
E13 [14], 12.3 nM	0.74	–
E13 [14], 37 nM	0.381	–
E13 [14], 111.1 nM	0.629	–
E13 [14], 333.3 nM	0.569	–
E13 [14], 1000 nM	0.919	–
E13 [14], 3000 nM	5.8	–
E21 [5], 4.1 nM	–	0.997
E21 [5], 12.3 nM	–	1
E21 [5], 37 nM	–	1.02
E21 [5], 111.1 nM	–	0.947
E21 [5], 333.3 nM	–	0.979
E21 [5], 1000 nM	–	0.84
E21 [5], 3000 nM	–	0.255
E21 [12], 4.1 nM	0.692	–
E21 [12], 12.3 nM	0.512	–
E21 [12], 37 nM	1.07	–
E21 [12], 111.1 nM	0.632	–
E21 [12], 333.3 nM	1.15	–
E21 [12], 1000 nM	2.27	–
E21 [12], 3000 nM	5.54	–
E28 [2], 4.1 nM	–	1.1
E28 [2], 12.3 nM	–	0.95
E28 [2], 37 nM	–	0.888
E28 [2], 111.1 nM	–	0.581
E28 [2], 333.3 nM	–	0.418
E28 [2], 1000 nM	–	0.177
E28 [2], 3000 nM	–	0.00427
E28 [9], 4.1 nM	1.07	–
E28 [9], 12.3 nM	0.679	–
E28 [9], 37 nM	0.773	–
E28 [9], 111.1 nM	1.25	–
E28 [9], 333.3 nM	1.81	–
E28 [9], 1000 nM	2.9	–
E28 [9], 3000 nM	11.4	–
E31 [3], 4.1 nM	–	1.17
E31 [3], 12.3 nM	–	0.911
E31 [3], 37 nM	–	1.03
E31 [3], 111.1 nM	–	1.13
E31 [3], 333.3 nM	–	1.09
E31 [3], 1000 nM	–	0.723
E31 [3], 3000 nM	–	0.00651
E31 [10], 4.1 nM	1.04	–
E31 [10], 12.3 nM	0.586	–
E31 [10], 37 nM	0.373	–
E31 [10], 111.1 nM	1.33	–
E31 [10], 333.3 nM	1.16	–
E31 [10], 1000 nM	1.4	–
E31 [10], 3000 nM	8.52	–
E34 [6], 4.1 nM	–	0.913
E34 [6], 12.3 nM	–	1.08
E34 [6], 37 nM	–	1.18
E34 [6], 111.1 nM	–	1.01
E34 [6], 333.3 nM	–	0.92
E34 [6], 1000 nM	–	0.993
E34 [6], 3000 nM	–	0.269
E34 [13], 4.1 nM	0.444	–
E34 [13], 12.3 nM	0.588	–
E34 [13], 37 nM	1.03	–
E34 [13], 111.1 nM	0.434	–
E34 [13], 333.3 nM	1.04	–
E34 [13], 1000 nM	0.939	–
E34 [13], 3000 nM	5.66	–
E57 [1], 4.1 nM	–	0.985
E57 [1], 12.3 nM	–	0.96
E57 [1], 37 nM	–	1.12
E57 [1], 111.1 nM	–	0.993
E57 [1], 333.3 nM	–	0.966
E57 [1], 1000 nM	–	0.884
E57 [1], 3000 nM	–	0.0901
E57 [8], 4.1 nM	0.808	–
E57 [8], 12.3 nM	0.759	–
E57 [8], 37 nM	0.726	–
E57 [8], 111.1 nM	0.677	–
E57 [8], 333.3 nM	1.12	–
E57 [8], 1000 nM	2.3	–
E57 [8], 3000 nM	9.6	–
FT3469 [4], 4.1 nM	–	1.13
FT3469 [4], 12.3 nM	–	1.02
FT3469 [4], 37 nM	–	0.955
FT3469 [4], 111.1 nM	–	0.76
FT3469 [4], 333.3 nM	–	0.898
FT3469 [4], 1000 nM	–	0.909
FT3469 [4], 3000 nM	–	0.0719
FT3469 [11], 4.1 nM	0.766	–
FT3469 [11], 12.3 nM	0.505	–
FT3469 [11], 37 nM	0.606	–
FT3469 [11], 111.1 nM	1.02	–
FT3469 [11], 333.3 nM	0.835	–
FT3469 [11], 1000 nM	1.28	–
FT3469 [11], 3000 nM	5.55	–

COC(=O)Nc1nc2cc(C(=O)c3cccs3)ccc2[nH]1 [Nocodazole]
Conditions	phenotypic distance	surviving fraction
E13 [7], 4.11523 nM	–	0.286
E13 [7], 12.34567901 nM	–	0.309
E13 [7], 37.037 nM	–	0.238
E13 [7], 111.1111111 nM	–	0.193
E13 [7], 333.333 nM	–	0.228
E13 [7], 1000 nM	–	0.186
E13 [7], 3000 nM	–	0.178
E13 [14], 4.11523 nM	6.13	–
E13 [14], 12.34567901 nM	4.73	–
E13 [14], 37.037 nM	5.56	–
E13 [14], 111.1111111 nM	6.89	–
E13 [14], 333.333 nM	6.42	–
E13 [14], 1000 nM	6.56	–
E13 [14], 3000 nM	9.87	–
E21 [5], 4.11523 nM	–	0.506
E21 [5], 12.34567901 nM	–	0.54
E21 [5], 37.037 nM	–	0.116
E21 [5], 111.1111111 nM	–	0.101
E21 [5], 333.333 nM	–	0.118
E21 [5], 1000 nM	–	0.0883
E21 [5], 3000 nM	–	0.083
E21 [12], 4.11523 nM	4.87	–
E21 [12], 12.34567901 nM	4.76	–
E21 [12], 37.037 nM	8.31	–
E21 [12], 111.1111111 nM	9.95	–
E21 [12], 333.333 nM	9.8	–
E21 [12], 1000 nM	8.46	–
E21 [12], 3000 nM	9.75	–
E28 [2], 4.11523 nM	–	0.698
E28 [2], 12.34567901 nM	–	0.609
E28 [2], 37.037 nM	–	0.531
E28 [2], 111.1111111 nM	–	0.353
E28 [2], 333.333 nM	–	0.428
E28 [2], 1000 nM	–	0.267
E28 [2], 3000 nM	–	0.297
E28 [9], 4.11523 nM	2.22	–
E28 [9], 12.34567901 nM	2.63	–
E28 [9], 37.037 nM	2.97	–
E28 [9], 111.1111111 nM	3.74	–
E28 [9], 333.333 nM	3.59	–
E28 [9], 1000 nM	4.6	–
E28 [9], 3000 nM	5.85	–
E31 [3], 4.11523 nM	–	0.262
E31 [3], 12.34567901 nM	–	0.174
E31 [3], 37.037 nM	–	0.135
E31 [3], 111.1111111 nM	–	0.0743
E31 [3], 333.333 nM	–	0.0743
E31 [3], 1000 nM	–	0.058
E31 [3], 3000 nM	–	0.0327
E31 [10], 4.11523 nM	4.08	–
E31 [10], 12.34567901 nM	3.99	–
E31 [10], 37.037 nM	5.49	–
E31 [10], 111.1111111 nM	6.17	–
E31 [10], 333.333 nM	5.43	–
E31 [10], 1000 nM	11.1	–
E31 [10], 3000 nM	12	–
E34 [6], 4.11523 nM	–	0.543
E34 [6], 12.34567901 nM	–	0.541
E34 [6], 37.037 nM	–	0.488
E34 [6], 111.1111111 nM	–	0.469
E34 [6], 333.333 nM	–	0.394
E34 [6], 1000 nM	–	0.316
E34 [6], 3000 nM	–	0.433
E34 [13], 4.11523 nM	3.24	–
E34 [13], 12.34567901 nM	3.27	–
E34 [13], 37.037 nM	4.43	–
E34 [13], 111.1111111 nM	4.49	–
E34 [13], 333.333 nM	5.97	–
E34 [13], 1000 nM	8.12	–
E34 [13], 3000 nM	7.56	–
E57 [1], 4.11523 nM	–	0.452
E57 [1], 12.34567901 nM	–	0.418
E57 [1], 37.037 nM	–	0.143
E57 [1], 111.1111111 nM	–	0.067
E57 [1], 333.333 nM	–	0.0805
E57 [1], 1000 nM	–	0.0687
E57 [1], 3000 nM	–	0.104
E57 [8], 4.11523 nM	5.26	–
E57 [8], 12.34567901 nM	5.57	–
E57 [8], 37.037 nM	7.85	–
E57 [8], 111.1111111 nM	6.23	–
E57 [8], 333.333 nM	6.48	–
E57 [8], 1000 nM	6.95	–
E57 [8], 3000 nM	6.12	–
FT3469 [4], 4.11523 nM	–	0.562
FT3469 [4], 12.34567901 nM	–	0.573
FT3469 [4], 37.037 nM	–	0.619
FT3469 [4], 111.1111111 nM	–	0.474
FT3469 [4], 333.333 nM	–	0.582
FT3469 [4], 1000 nM	–	0.382
FT3469 [4], 3000 nM	–	0.353
FT3469 [11], 4.11523 nM	3.38	–
FT3469 [11], 12.34567901 nM	3.38	–
FT3469 [11], 37.037 nM	3.11	–
FT3469 [11], 111.1111111 nM	2.9	–
FT3469 [11], 333.333 nM	3.84	–
FT3469 [11], 1000 nM	5.03	–
FT3469 [11], 3000 nM	4.79	–
